Read-outs that look alike come from different tables or passages of the source.
How the values were obtained:
[1] = test system: ischémie cérébrale globale chez la souris; test: global cerebral ischemia test in mice (cardiac arrest induced by intravenous magnesium chloride; survival time); assay type: in vivo; conditions: Mus musculus, read-out: dose efficace 3 secondes (DE3sec)
Excerpt: Ainsi les composés utilisables selon l'invention ont été soumis au test de l'ischémie cérébrale globale chez la souris. L'ischémie est due à un arrêt cardiaque induit par une injection intraveineuse rapide de chlorure de magnésium. Dans ce test on mesure le "temps de survie", c'est-à-dire l'intervalle entre le moment de l'injection de chlorure de magnésium et le dernier mouvement respiratoire observable de chaque souris. Ce dernier mouvement est considéré comme l'indice ultime d'une fonction du système nerveux central. L'arrêt respiratoire apparaît approximativement 21 secondes après l'injection de chlorure de magnésium. Des souris mâles (SWISS OF₁ IFFA CREDO) sont étudiées par groupes de 10. Elles sont nourries et abreuvées ad libitum avant les essais. Le temps de survie est mesuré 10 minutes après l'administration intrapéritonéale ou 5 minutes après l'administration intraveineuse dans la veine caudale, des composés de formule (I). Les résultats sont donnés sous la forme de la différence entre le temps de survie mesuré dans un groupe de 10 souris ayant reçu le composé et le temps de survie mesuré dans un groupe de 10 souris ayant reçu le liquide véhicule. Les rapports entre le temps de survie et la dose du composé sont enregistrés graphiquement selon une courbe semilogarithmique. Cette courbe permet le calcul de la "dose efficace 3 secondes" (DE3sec), c'est-à-dire la dose (en mg/kg) qui produit une augmentation de 3 secondes du temps de survie par rapport au groupe témoin de 10 souris traitées par le véhicule. Une augmentation de 3 secondes du temps de survie est à la fois significative statistiquement et reproductible. A titre d'exemple, après injection par voie intrapéritonéale, la DE3sec du trans-N-[3-[5-(6-méthoxynaphtalén-1-yl)-1,3-dioxan-2-yl]propyl]acétamide dans ce test est de 11,4 mg/kg, la DE3sec du cis-N-[3-[5-(6-méthoxynaphtalén-1-yl)-1,3-dioxan-2-yl]propyl]acétamide dans ce test est de 6,1 mg/kg et la DE3sec du trans-N-[3-[5-[6-(cyclopropylméthoxy)naphtalén-1-yl]-1,3-dioxan-2-yl]propyl]acétamide dans ce test est de 6,1 mg/kg. Par voie intraveineuse, après solubilisation dans une solution de 2-hydroxypropyl-β-cyclodextrine, la DE3sec du trans-N-[3-[5-(6-méthoxynaphtalén-1-yl)-1,3-dioxan-2-yl]propyl]acétamide dans ce test est de 2,25 mg/kg.

[2] = test system: ischémie focale permanente par occlusion intraluminale de l'artère cérébrale moyenne chez le rat; test: permanent focal ischemia model by intraluminal occlusion of the middle cerebral artery in the rat (infarct volume); assay type: in vivo; conditions: 1 mg/kg intraperitoneal, given 10 minutes, 2 h 30 and 5 h after occlusion; infarct volume evaluated 24 h after occlusion
Excerpt: L'activité neuroprotectrice des composés de formule (I) a été également démontrée dans un modèle d'ischémie focale permanente par occlusion intraluminale de l'artère cérébrale moyenne chez le rat, selon une méthode analogue à celle décrite dans Stroke, 20, 84-91 (1989). Sous anesthésie au méthohexital sodique, on ligature l'artère ptérygopalatine, l'artère carotidienne commune et l'artère carotidienne externe gauche; on introduit un fil de nylon dans l'artère carotidienne interne sur une longueur d'environ 18 mm correspondant à la distance qui sépare la naissance de l'artère carotidienne interne de celle de l'artère cérébrale moyenne. Les composés sont administrés 10 minutes, 2 heures 30 et 5 heures après l'occlusion, aux doses de 0,3; 1; 3 et 10 mg/kg par voie intrapéritonéale. 24 heures après l'occlusion de l'artère cérébrale moyenne, on sacrifie les animaux et on prélève le cerveau. On évalue le volume de l'infarctus cérébral à partir de la mesure de la surface de la nécrose sur 6 coupes coronales colorées par le chlorure de 2,3,5-triphényltétrazolium. A titre d'exemple le trans-N-[3-[5-(6-méthoxynaphtalén-1-yl)-1,3-dioxan-2-yl]propyl]acétamide réduit le volume de l'infarctus cérébral d'environ 30% à la dose de 1 mg/kg.

[3] = ip, 10 min, intraperitoneal injection, survival time measured 10 minutes after administration, dose giving a 3 second increase of survival time vs vehicle group

## COc1ccc2c(cccc2[C@H]2CO[C@@H](CCCNC(C)=O)OC2)c1 [cis-N-[3-[5-(6-méthoxynaphtalén-1-yl)-1,3-dioxan-2-yl]propyl]acétamide]
[1]; [3]
  ED (3 s increase of survival time): 6.1 mg/kg

## COc1ccc2c(cccc2[C@H]2CO[C@H](CCCNC(C)=O)OC2)c1 [trans-N-[3-[5-(6-méthoxynaphtalén-1-yl)-1,3-dioxan-2-yl]propyl]acétamide]
[1]; 5 min, intravenous route, solubilised in 2-hydroxypropyl-β-cyclodextrine solution, survival time measured 5 minutes after administration
  ED (3 s increase of survival time): 2.25 mg/kg
[1]; [3]
  ED (3 s increase of survival time): 11.4 mg/kg
[2]
  réduit le volume de l'infarctus cérébral: ~30%

## CC(=O)NCCC[C@H]1OC[C@H](c2cccc3cc(OCC4CC4)ccc32)CO1 [trans-N-[3-[5-[6-(cyclopropylméthoxy)naphtalén-1-yl]-1,3-dioxan-2-yl]propyl]acétamide]
[1]; [3]
  ED (3 s increase of survival time): 6.1 mg/kg
